{"source": "paper PMC11755529", "about": "“Chlorpyrifos Acts as a Positive Modulator and an Agonist of N-Methyl-D-Aspartate (NMDA) Receptors: A Novel Mechanism of Chlorpyrifos-Induced Neurotoxicity” (Journal of Xenobiotics, 2025)", "key": {"[1]": {"test": "Three-color fluorescence (FDA/PI) live, dead and apoptotic cell staining", "format": "cell-based, human", "conditions": "human, 14 μM CPF, control 96.4%, p < 0.001, read-out: cell viability (live cells)", "method": "(§1) The human neural progenitor ReNcell CX cell line (Merck Millipore, Watford, UK) is a neural stem cell line derived from the developing human fetal brain cortex ([…]) at 14 weeks of gestational age. The ReNcell CX cell line was expanded on laminin-coated flasks (20 μg/mL; Sigma-Aldrich, Poole, UK) in ReNcell Neural Stem Cell (NSC) Maintenance Medium (Merck Millipore, Watford, UK) containing fresh EGF (20 ng/mL; Merck Millipore, Watford, UK) and FGF-b (20 ng/mL; Merck Millipore, Watford, UK). Cultures were incubated at 37 °C in a 95% humidified atmosphere of 5% CO2. ReNcell CX neural progenitor cells were differentiated into a co-culture of neurons, astrocytes, and oligodendrocytes by replacing the complete ReNcell CX medium with EGF- and FGF-b-free medium; with the differentiation medium refreshed every 2 days throughout the 4-week differentiation period.\n(§2) A three-color fluorescence assay was performed as described by Kim et al.. Non-fluorescent fluorescein diacetate (FDA) permeates into active and intact cells and is hydrolyzed by intracellular esterases into a highly fluorescent green fluorescein when illuminated with a fluorescein isothiocyanate (FITC; blue) excitation filter set (emission wavelength […]). Propidium iodide (PI) is a nucleic acid dye that cannot permeate intact cell membranes and selectively stains the nuclei of dead cells or cells in late apoptotic stages. Stained nuclei omit red fluorescence under rhodamine (green) excitation (emission wavelength 650 nm). Live–dead cell assays followed the protocol described by Jones and Senft. The cells were observed using a Nikon TS100 inverted microscope (Nikon Europe B.V., Amstelveen, The Netherlands) with incident fluorescence optics. Images were captured at 200× magnification and digitalized with a Moticam 2300 camera (Roper Scientific Inc., Duluth, GA, USA; resolution 3 MP).\n(§3) Live/dead cell staining was analyzed quantitatively. The number of PI-stained nuclei was counted manually using the cell counting option in the ImageJ software (V2 Fiji-win64, University of Nottingham)."}, "[2]": {"test_system": "4-week differentiated ReNcell CX cells", "test": "Three-color fluorescence (FDA/PI) live, dead and apoptotic cell staining", "format": "cell-based, human", "conditions": "24 h", "method": "as §1, §2, §3"}, "GluN1-1a/GluN2A NMDAR": {"target": "T1, GluN1-1a/GluN2A NMDAR (Rattus norvegicus, UniProt P35439+Q00959)", "T1 construct": "expressed in transfected cells; host or cells: Xenopus laevis oocytes, injected with cRNA or plasmid DNA (pRK7 or pBluescript SK(-))", "T1 sequence (Q00959 20-1464 limits assumed, other chains not shown)": "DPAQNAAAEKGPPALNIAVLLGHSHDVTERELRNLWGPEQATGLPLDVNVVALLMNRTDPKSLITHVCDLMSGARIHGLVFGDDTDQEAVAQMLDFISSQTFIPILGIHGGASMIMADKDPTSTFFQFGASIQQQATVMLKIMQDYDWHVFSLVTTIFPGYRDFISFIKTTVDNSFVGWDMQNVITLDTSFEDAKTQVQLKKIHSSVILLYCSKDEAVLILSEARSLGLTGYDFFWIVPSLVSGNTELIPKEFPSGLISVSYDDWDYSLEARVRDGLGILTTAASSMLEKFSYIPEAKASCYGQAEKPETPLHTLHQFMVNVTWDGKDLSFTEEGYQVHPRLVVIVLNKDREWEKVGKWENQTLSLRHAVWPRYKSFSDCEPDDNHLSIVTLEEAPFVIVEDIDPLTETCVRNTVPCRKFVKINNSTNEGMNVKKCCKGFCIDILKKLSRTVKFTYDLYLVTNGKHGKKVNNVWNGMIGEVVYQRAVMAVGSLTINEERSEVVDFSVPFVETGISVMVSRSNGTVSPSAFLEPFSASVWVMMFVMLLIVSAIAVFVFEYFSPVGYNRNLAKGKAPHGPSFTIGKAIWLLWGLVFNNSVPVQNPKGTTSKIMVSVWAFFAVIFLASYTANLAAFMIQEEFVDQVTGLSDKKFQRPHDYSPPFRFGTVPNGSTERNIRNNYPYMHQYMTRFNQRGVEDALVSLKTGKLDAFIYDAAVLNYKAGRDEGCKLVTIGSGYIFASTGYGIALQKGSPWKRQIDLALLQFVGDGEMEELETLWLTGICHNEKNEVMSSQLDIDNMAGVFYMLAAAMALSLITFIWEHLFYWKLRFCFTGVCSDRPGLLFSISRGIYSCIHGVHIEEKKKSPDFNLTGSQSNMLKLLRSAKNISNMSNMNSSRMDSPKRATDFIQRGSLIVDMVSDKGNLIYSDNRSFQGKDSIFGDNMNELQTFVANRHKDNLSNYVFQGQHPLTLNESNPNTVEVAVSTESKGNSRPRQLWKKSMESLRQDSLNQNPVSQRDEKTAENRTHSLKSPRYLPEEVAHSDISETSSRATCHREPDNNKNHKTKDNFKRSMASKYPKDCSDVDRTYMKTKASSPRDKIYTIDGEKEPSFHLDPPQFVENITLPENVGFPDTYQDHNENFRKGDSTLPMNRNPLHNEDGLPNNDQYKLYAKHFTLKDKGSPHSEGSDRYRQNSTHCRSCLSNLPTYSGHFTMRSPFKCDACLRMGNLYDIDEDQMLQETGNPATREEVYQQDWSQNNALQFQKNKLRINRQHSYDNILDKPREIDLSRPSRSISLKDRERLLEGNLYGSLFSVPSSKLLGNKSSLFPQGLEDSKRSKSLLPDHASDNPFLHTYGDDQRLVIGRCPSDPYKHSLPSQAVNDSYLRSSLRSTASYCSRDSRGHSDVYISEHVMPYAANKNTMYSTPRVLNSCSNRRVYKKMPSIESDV", "test": "TEVC electrophysiology of Xenopus oocytes expressing GluN1-1a/GluN2A", "format": "cell-based", "method": "(§4) Ovaries of mature female Xenopus laevis were supplied by the European Xenopus Resource Centre (University of Portsmouth, Portsmouth, UK). Upon receipt, oocytes were first separated with 1 mg/mL collagenase (Type 1A from Clostridium histolyticum; Sigma, Poole, UK) in Ca^2+-free Barth’s gentamicin–theophylline–pyruvate (GTP) solution (96 mM NaCl, 2 mM KCl, 1 mM MgCl2, 5 mM HEPES, 2.5 mM pyruvic acid, 0.5 mM theophylline, 50 μg/mL gentamicin, pH 7.5) on a shaker for approximately 45 min at room temperature. Oocytes were then rinsed with Ca^2+-free GTP solution six to eight times until a clear solution was obtained and incubated in normal Barth’s GTP solution (Ca^2+-free GTP with inclusion of 1.8 mM CaCl2) at ~4 °C for at least half an hour prior to microinjection.\n(§5) Healthy oocytes at developmental stages IV and V were injected with 50 nL of cRNA (into the cytoplasm) or plasmid DNA (into the nucleus) at a concentration of ~100 ng/μL using a Nanolitre 2010 Injector (World Precision Instruments, Hitchin, UK). cRNA or DNA plasmids encoding the rat NMDAR subunits GluN1-1a and GluN2A or GluN1-1a and GluN2B were mixed at ratios of 1:1 (by weight) for injection. The cRNA was synthesized from linearized plasmid DNA (pRK7 or pBluscript SK(−)) containing the GluN-encoding genes using an Invitrogen mMessage mMachine kit (Thermo Fisher Scientific, Loughborough, UK). Injected oocytes were kept in normal Barth’s GTP solution at 19 °C for two to three days for expression of NMDAR subunits before recordings.\n(§6) TEVC electrophysiology was used to assess the direct effects of CPF on NMDARs containing GluN1-1a and GluN2A or GluN1-1a and GluN2B subunits expressed in Xenopus oocytes. Pulled borosilicate glass capillaries (GC150TF-10, Harvard Apparatus, Cambridge, UK) (resistances 0.5–2 MΩ) were filled with 3 M KCl and used to impale injected oocytes for recording. Injected oocytes were continuously perfused with Mg^2+-free Xenopus Ringer solution (95 mM NaCl, 2 mM KCl, 2 mM CaCl2, 5 mM HEPES, pH 7.5) at a flow rate of 5 mL/min, with test compounds applied using a Valvelink 8 gravity-fed perfusion system (Automate Scientific, Berkeley, CA, USA). Recordings were performed at 20–25 °C and oocytes were clamped at −75 mV holding potential in all experiments. Output current responses were transferred to a PC via an analogue-to-digital (A/D) converter (National Instruments PCI-6014, Austin, TX, USA) and recorded in WinEDR V3.2.7 software (John Dempster, Strathclyde Electrophysiology Software, Strathclyde Institute of Pharmacy and Biomedical Sciences, University of Strathclyde, Strathclyde, UK). Current changes in response to NMDA/glycine when applied with CPF were normalized to the control current without CPF.\n(§7) Results were expressed as means ± standard error of the mean (SEM). Statistical analysis was undertaken between concentrations using an independent samples Kruskal–Wallis test across cell culture conditions using IBM SPSS statistical software (version 26.0). […] EC50 and maximum response values were obtained using non-linear regression by fitting a four-parametric logistic equation to concentration–response plots in GraphPad Prism 10 (GraphPad Software Inc., La Jolla, CA, USA):(1) Y=Min+Max−Min/10^LogEC50−XS+1 where Y is the response to the agonist, X is the log10 concentration of the agonist, EC50 is the concentration of agonist that produces a half-maximum activation response, and S is the Hill slope. EC50s and maximum responses were compared for significant differences using an extra sum of squares F-test in GraphPad Prism 10."}, "GluN1-1a/GluN2B NMDAR": {"target": "T2, GluN1-1a/GluN2B NMDAR (Rattus norvegicus, UniProt P35439+Q00960)", "T2 construct": "expressed in transfected cells; host or cells: Xenopus laevis oocytes, injected with cRNA or plasmid DNA (pRK7 or pBluescript SK(-))", "T2 sequence (Q00960 27-1482, other chains not shown)": "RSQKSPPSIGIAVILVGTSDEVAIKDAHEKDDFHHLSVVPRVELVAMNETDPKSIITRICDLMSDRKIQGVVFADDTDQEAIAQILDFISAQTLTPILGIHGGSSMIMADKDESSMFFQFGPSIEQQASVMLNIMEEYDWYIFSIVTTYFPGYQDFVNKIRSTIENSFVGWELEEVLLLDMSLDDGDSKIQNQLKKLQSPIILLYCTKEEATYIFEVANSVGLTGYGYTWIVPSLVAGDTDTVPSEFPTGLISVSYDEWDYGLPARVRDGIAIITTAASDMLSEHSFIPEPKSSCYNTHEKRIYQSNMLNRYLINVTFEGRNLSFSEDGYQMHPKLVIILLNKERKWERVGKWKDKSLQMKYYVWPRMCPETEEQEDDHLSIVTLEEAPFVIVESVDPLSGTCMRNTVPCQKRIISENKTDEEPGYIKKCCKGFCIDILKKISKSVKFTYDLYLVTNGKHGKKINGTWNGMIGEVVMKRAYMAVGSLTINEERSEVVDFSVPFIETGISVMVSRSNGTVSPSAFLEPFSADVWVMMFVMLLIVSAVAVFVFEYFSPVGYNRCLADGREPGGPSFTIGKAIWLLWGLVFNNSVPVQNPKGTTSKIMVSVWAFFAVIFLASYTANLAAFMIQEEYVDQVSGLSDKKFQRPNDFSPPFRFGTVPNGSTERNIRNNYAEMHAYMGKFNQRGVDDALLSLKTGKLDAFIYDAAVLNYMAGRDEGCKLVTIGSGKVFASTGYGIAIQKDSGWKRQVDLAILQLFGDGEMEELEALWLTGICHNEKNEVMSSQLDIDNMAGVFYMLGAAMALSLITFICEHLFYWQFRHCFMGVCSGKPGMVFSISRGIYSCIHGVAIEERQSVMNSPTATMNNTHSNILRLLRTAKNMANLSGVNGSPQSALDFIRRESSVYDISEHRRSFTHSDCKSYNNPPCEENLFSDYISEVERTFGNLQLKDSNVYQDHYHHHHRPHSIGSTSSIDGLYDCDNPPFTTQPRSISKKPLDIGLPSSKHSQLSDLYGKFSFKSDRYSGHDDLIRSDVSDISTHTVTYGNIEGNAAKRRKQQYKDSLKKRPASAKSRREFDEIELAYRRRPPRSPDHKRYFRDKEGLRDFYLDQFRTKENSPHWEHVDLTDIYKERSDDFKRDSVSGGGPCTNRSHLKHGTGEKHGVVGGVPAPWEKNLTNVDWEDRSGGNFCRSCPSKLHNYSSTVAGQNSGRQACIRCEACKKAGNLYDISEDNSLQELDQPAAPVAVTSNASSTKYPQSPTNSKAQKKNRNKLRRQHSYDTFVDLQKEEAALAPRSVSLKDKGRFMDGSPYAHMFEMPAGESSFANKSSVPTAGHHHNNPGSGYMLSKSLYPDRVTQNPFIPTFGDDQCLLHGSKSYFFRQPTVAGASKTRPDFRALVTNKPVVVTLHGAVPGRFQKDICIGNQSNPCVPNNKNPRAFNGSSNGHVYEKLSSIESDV", "test": "TEVC electrophysiology of Xenopus oocytes expressing GluN1-1a/GluN2B", "format": "cell-based", "method": "as §4, §5, §6, §7"}, "[3]": {"conditions": "cited from earlier work"}, "[4]": {"conditions": "10 μM CPF applied directly, −75 mV"}}, "note": "pEC50: −log10 of the molar value. Like-named read-outs stand apart in the source and are kept apart here.", "data": [{"smiles": "CCOP(=S)(OCC)Oc1nc(Cl)c(Cl)cc1Cl", "note": "[CPF, O,O-diethyl O-(3,5,6-trichloropyridin-2-yl) phosphorothioate]", "values": [{"measurement": "viability at 24 h, 14 μM", "setting": "[1]", "value": 71.4, "unit": "%"}, {"measurement": "cells transitioned to apoptosis", "setting": "[2]; 14 μM CPF", "value": 18.7, "unit": "%"}, {"measurement": "dead cells", "setting": "[2]; 14 μM CPF", "value": 3.91, "unit": "%"}, {"measurement": "pEC50", "setting": "GluN1-1a/GluN2A NMDAR", "value": "~7.40"}, {"measurement": "enhancement of current evoked by 10 μM glycine", "setting": "GluN1-1a/GluN2A NMDAR; 1 μM CPF co-applied with 10 μM glycine, n = 3, p < 0.05", "value": "~ 1.7 fold"}, {"measurement": "direct activation by CPF alone", "setting": "GluN1-1a/GluN2A NMDAR; [4]", "value": "resulted in NMDAR-mediated currents"}, {"measurement": "pEC50", "setting": "GluN1-1a/GluN2B NMDAR", "value": "~7.26"}, {"measurement": "direct activation by CPF alone", "setting": "GluN1-1a/GluN2B NMDAR; [4]", "value": "resulted in NMDAR-mediated currents"}, {"measurement": "enhancement of current evoked by 100 μM NMDA", "setting": "GluN1-1a/GluN2B NMDAR; 10 μM CPF co-applied with 100 μM NMDA, n = 5, p < 0.05", "value": "~ 8.2 fold"}, {"measurement": "no observed adverse effect level (NOAEL), as concentration", "setting": "[3]; conversion of 100 μg/kg/day as printed", "value": "≈ 285 nM"}, {"measurement": "no observed adverse effect level (NOAEL)", "setting": "[3]; set by European Food Safety Authority", "value": 100, "unit": "µg/kg/day"}]}, {"smiles": "C[C@]12N[C@H](Cc3ccccc31)c1ccccc12", "note": "[MK-801, reference compound]", "values": [{"measurement": "antagonism of CPF-induced potentiation of NMDA/glycine-evoked current", "setting": "GluN1-1a/GluN2A NMDAR; 10 μM MK-801 with 1 μM CPF, 10 μM NMDA, 10 μM Gly, −75 mV", "value": "completely blocked"}]}, {"smiles": "CC(C(O)c1ccc(O)cc1)N1CCC(Cc2ccccc2)CC1", "note": "(stereo not drawn) [IFN, ifenprodil, reference compound]", "values": [{"measurement": "effect on CPF-induced decrease in cell viability", "setting": "[2]; 25 μM IFN co-administered with 14 μM CPF, p < 0.001", "value": "attenuated the CPF-induced decrease in ReNcell CX cell viability"}, {"measurement": "antagonism of CPF-induced potentiation of NMDA/glycine-evoked current", "setting": "GluN1-1a/GluN2B NMDAR; 100 μM IFN with 1 μM CPF, 10 μM NMDA, 10 μM Gly, −75 mV", "value": "completely blocked"}]}, {"smiles": "CN[C@H](CC(=O)O)C(=O)O", "note": "[NMDA, N-methyl-D-aspartate]", "values": [{"measurement": "maximum response (percentage of the response to 1 mM NMDA)", "setting": "GluN1-1a/GluN2A NMDAR; 10 μM glycine, absence of CPF", "value": 102, "unit": "%"}, {"measurement": "pEC50", "setting": "GluN1-1a/GluN2A NMDAR; 10 μM glycine, absence of CPF, n = 5, read-out: NMDA EC50", "value": 4.24}, {"measurement": "maximum response (percentage of the response to 1 mM NMDA)", "setting": "GluN1-1a/GluN2B NMDAR; 10 μM glycine, absence of CPF", "value": 103, "unit": "%"}, {"measurement": "pEC50", "setting": "GluN1-1a/GluN2B NMDAR; 10 μM glycine, absence of CPF, n = 6, read-out: NMDA EC50", "value": 4.15}]}]}
